Experimental data from patent US9458198B1, “Cyclic peptide-based NPR-B agonists” (priority 2009, dated 2016).
Where a SMILES comes first, the peptide text is derived from it. Bridges are numbered along the chain shown (N, C = ends). [ ]: non-standard residue; d: D form. The star is where a group is joined. Hexanoyl = CCCCCC(=O)*

molecular target: T1, NPR-B (Homo sapiens, UniProt P20594); assay: NPR-B induced production of cyclic GMP in GTM-3 cells; type: cell-based; conditions: Activity (group): NPR-B activation, EC50 and Emax (CNP = 100%)
T1 construct: a functional assay using endogenously NPR-B expressing GTM-3 cells; endogenous in cells; host or cells: GTM-3 (transformed human trabecular meshwork cells)
T1 sequence (P20594 23-1047): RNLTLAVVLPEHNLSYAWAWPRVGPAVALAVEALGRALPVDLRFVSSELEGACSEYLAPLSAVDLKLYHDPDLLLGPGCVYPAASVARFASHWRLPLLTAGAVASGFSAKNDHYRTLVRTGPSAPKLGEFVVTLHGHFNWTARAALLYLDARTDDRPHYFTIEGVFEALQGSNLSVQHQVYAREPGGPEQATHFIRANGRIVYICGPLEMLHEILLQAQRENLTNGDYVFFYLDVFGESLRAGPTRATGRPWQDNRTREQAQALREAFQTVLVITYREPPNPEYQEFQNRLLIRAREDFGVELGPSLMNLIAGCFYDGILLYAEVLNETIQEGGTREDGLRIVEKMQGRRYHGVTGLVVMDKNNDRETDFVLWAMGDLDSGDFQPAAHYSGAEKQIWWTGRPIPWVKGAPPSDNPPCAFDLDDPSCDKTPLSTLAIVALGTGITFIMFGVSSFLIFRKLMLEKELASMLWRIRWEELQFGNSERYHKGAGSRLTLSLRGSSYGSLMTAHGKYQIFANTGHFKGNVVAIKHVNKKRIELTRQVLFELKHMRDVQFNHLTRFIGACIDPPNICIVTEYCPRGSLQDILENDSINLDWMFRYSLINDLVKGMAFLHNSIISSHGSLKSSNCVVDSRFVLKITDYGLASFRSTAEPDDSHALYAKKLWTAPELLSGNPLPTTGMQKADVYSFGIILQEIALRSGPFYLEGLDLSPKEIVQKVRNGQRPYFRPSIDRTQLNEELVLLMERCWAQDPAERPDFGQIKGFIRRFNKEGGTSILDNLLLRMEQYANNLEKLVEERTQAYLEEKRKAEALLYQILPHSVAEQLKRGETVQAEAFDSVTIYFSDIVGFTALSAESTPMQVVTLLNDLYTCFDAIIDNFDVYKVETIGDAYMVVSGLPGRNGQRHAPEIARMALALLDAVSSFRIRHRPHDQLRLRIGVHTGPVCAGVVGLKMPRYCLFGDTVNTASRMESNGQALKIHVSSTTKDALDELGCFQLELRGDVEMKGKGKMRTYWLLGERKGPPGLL
Protocol: The efficacy and potency of compounds to activate NPR-B were evaluated in a functional assay using endogenously NPR-B expressing GTM-3 cells (Pang et al. 1994, Curr Eye Res 13:51-63). In this assay the dose dependent production of cyclic GMP (cGMP) is determined and Emax (maximum activation) and EC50 values are calculated.
The cell culture medium is aspirated and each well is washed with 200 μl DMEM/Ham's F12=Medium (Gibco). Then, 200 μl Medium supplemented with 1 mM IBMX (3-Isobutyl-1-methyl-xanthin, Sigma) is added to each well and incubated for 15 min. at room temperature.
Final compound concentrations are in the range from 45 μM to 20 nM.

SMILES | EC50 [µM]
CC[C@H](C)[C@@H]1NC(=O)[C@H](CCCNC(=N)N)NC(=O)[C@H](CC(=O)O)NC(=O)[C@H](CC(C)C)NC(=O)[C@H](CCCCN)NC(=O)[C@H](CC(C)C)NC(=O)CNC(=O)[C@H](Cc2ccccc2)NC(=O)[C@@H](C)NC(=O)[C@@H](NC(=O)CCC(C)C)CSSC[C@@H](C(N)=O)NC(=O)[C@H](CO)NC1=O [compound 64] | < 1
CCCCCC(=O)N[C@H]1CSSC[C@@H](C(N)=O)NC(=O)[C@H](CO)NC(=O)[C@H]([C@@H](C)CC)NC(=O)[C@H](CCCNC(=N)N)NC(=O)[C@H](CC(=O)O)NC(=O)[C@H]([C@@H](C)CC)NC(=O)[C@H](CCCCN)NC(=O)[C@H](CC(C)C)NC(=O)CNC(=O)[C@H](Cc2ccccc2)NC(=O)[C@H]2CCCN2C1=O [compound 92] (Hexanoyl-C[dP]FGLKIDRISC-NH2; disulfide 1-12) | < 1
CC[C@H](C)[C@@H]1NC(=O)[C@H](CCCNC(=N)N)NC(=O)[C@H](CC(=O)O)NC(=O)[C@H](CC(C)C)NC(=O)[C@H](CCCCN)NC(=O)[C@H](CC(C)C)NC(=O)CNC(=O)[C@H](Cc2ccccc2)NC(=O)[C@@H](C)NC(=O)[C@@H](NC(=O)CCCC(C)C)CSSC[C@@H](C(N)=O)NC(=O)[C@H](CO)NC1=O [compound 67] | < 1
CC[C@H](C)[C@@H]1NC(=O)[C@H](CCCNC(=N)N)NC(=O)[C@H](CC(=O)O)NC(=O)[C@H](CC(C)C)NC(=O)[C@H](CCCCN)NC(=O)[C@H](CC(C)C)NC(=O)CNC(=O)[C@H](Cc2ccccc2)NC(=O)[C@@H](C)NC(=O)[C@@H](NC(=O)CCCc2ccccc2)CSSC[C@@H](C(N)=O)NC(=O)[C@H](CO)NC1=O [compound 72] | < 1

same assay, conditions: Activity (group): NPR-B activation, EC50 and Emax (CNP = 100%), GTM-3 cells; group needs both EC50 and Emax criteria, checked A then B then C

SMILES | EC50 [µM]
CCCCCC(=O)N[C@H]1CSSC[C@@H](C(N)=O)NC(=O)[C@H](CO)NC(=O)[C@H]([C@@H](C)CC)NC(=O)[C@H](CCCNC(=N)N)NC(=O)[C@H](CC(=O)O)NC(=O)[C@H]([C@@H](C)CC)NC(=O)[C@@H]2CCCN2C(=O)[C@H](CC(C)C)NC(=O)CNC(=O)[C@H](Cc2ccccc2)NC(=O)[C@@H](C)NC1=O [compound 88] (Hexanoyl-C[dA]FGLPIDRISC-NH2; disulfide 1-12) | < 1

same assay, conditions: GTM3; GTM-3 cells, FIG. 2, CNP = 100%; read-out: Emax (maximum activation) relative to CNP

Emax [%] | SMILES
0 | CC[C@H](C)[C@@H]1NC(=O)[C@H](CCCNC(=N)N)NC(=O)[C@H](CC(=O)O)NC(=O)[C@H](CCSC)NC(=O)[C@H](CCCNC(=N)N)NC(=O)CNC(=O)CNC(=O)[C@H](Cc2ccccc2)NC(=O)[C@H](Cc2c[nH]cn2)NC(=O)[C@@H](NC(=O)[C@@H](N)CCSC)CSSC[C@@H](C(=O)N[C@@H](Cc2ccc(O)cc2)C(=O)N[C@@H](CCCNC(=N)N)C(N)=O)NC(=O)[C@H](CO)NC1=O [mini-ANP, reference compound] (H-MCHFGGRMDRISCYR-NH2; disulfide 2-13)

same assay, conditions: GTM-3 cells, FIG. 2, highest concentration 45 μM; read-out: EC50, cyclic GMP production

EC50 [µM] | SMILES
> 45 | CC[C@H](C)[C@@H]1NC(=O)[C@H](CCCNC(=N)N)NC(=O)[C@H](CC(=O)O)NC(=O)[C@H](CCSC)NC(=O)[C@H](CCCNC(=N)N)NC(=O)CNC(=O)CNC(=O)[C@H](Cc2ccccc2)NC(=O)[C@H](Cc2c[nH]cn2)NC(=O)[C@@H](NC(=O)[C@@H](N)CCSC)CSSC[C@@H](C(=O)N[C@@H](Cc2ccc(O)cc2)C(=O)N[C@@H](CCCNC(=N)N)C(N)=O)NC(=O)[C@H](CO)NC1=O [mini-ANP, reference compound] (H-MCHFGGRMDRISCYR-NH2; disulfide 2-13)

same assay, conditions: GTM-3 cells; group needs both EC50 and Emax criteria, checked A then B then C; read-out: Activity (group): NPR-B activation, EC50 and Emax (CNP = 100%)

EC50 [µM] | SMILES
< 5 | CSCC[C@H](N)C(=O)N[C@H]1CSSC[C@@H](C(N)=O)NC(=O)[C@H](CO)NC(=O)[C@H](C(C)C)NC(=O)[C@H](CCCNC(=N)N)NC(=O)[C@H](CC(=O)O)NC(=O)[C@H](CC(C)C)NC(=O)[C@H](CCCCN)NC(=O)[C@H](CC(C)C)NC(=O)CNC(=O)[C@H](Cc2ccccc2)NC(=O)[C@@H](C)NC1=O [compound 57] (H-MC[dA]FGLKLDRVSC-NH2; disulfide 2-13)
< 5 | CC[C@H](C)[C@@H]1NC(=O)[C@H](CCCNC(=N)N)NC(=O)[C@H](CC(=O)O)NC(=O)[C@H](CC(C)C)NC(=O)[C@H](CCCCN)NC(=O)[C@H](CC(C)C)NC(=O)CNC(=O)[C@H](Cc2ccccc2)NC(=O)[C@H](Cc2c[nH]cn2)NC(=O)[C@@H](NC(=O)[C@@H](N)CCSC)CSSC[C@@H](C(=O)N[C@@H](CC(N)=O)C(=O)N[C@@H](CCCNC(=N)N)C(N)=O)NC(=O)[C@H](CO)NC1=O [compound 22] (H-MCHFGLKLDRISCNR-NH2; disulfide 2-13)
< 5 | CC[C@H](C)[C@@H]1NC(=O)[C@H](CCCNC(=N)N)NC(=O)[C@H](CC(=O)O)NC(=O)[C@H](CC(C)C)NC(=O)[C@H](CCCCN)NC(=O)[C@H](CC(C)C)NC(=O)CNC(=O)[C@H](Cc2ccccc2)NC(=O)[C@@H](CC(N)=O)NC(=O)[C@@H](NC(=O)[C@@H](N)CCSC)CSSC[C@@H](C(N)=O)NC(=O)[C@H](CO)NC1=O [compound 40]
< 5 | CCCCCC(=O)N[C@H]1CSSC[C@@H](C(N)=O)NC(=O)[C@H](CO)NC(=O)[C@H]([C@@H](C)CC)NC(=O)[C@H](CCCNC(=N)N)NC(=O)[C@H](CC(=O)O)NC(=O)[C@H](CC(C)C)NC(=O)[C@H](CCCCN)NC(=O)CNC(=O)CNC(=O)[C@H](Cc2ccccc2)NC(=O)[C@@H](C)NC1=O [compound 102] (Hexanoyl-C[dA]FGGKLDRISC-NH2; disulfide 1-12)
< 5 | CCCCS(=O)(=O)N[C@H]1CSSC[C@@H](C(N)=O)NC(=O)[C@H](CO)NC(=O)[C@H]([C@@H](C)CC)NC(=O)[C@H](CCCNC(=N)N)NC(=O)[C@H](CC(=O)O)NC(=O)[C@H](CC(C)C)NC(=O)[C@H](CCCCN)NC(=O)[C@H](CC(C)C)NC(=O)CNC(=O)[C@H](Cc2ccccc2)NC(=O)[C@@H](C)NC1=O [compound 71]
< 5 | CC[C@H](C)[C@@H]1NC(=O)[C@H](CCCNC(=N)N)NC(=O)[C@H](CC(=O)O)NC(=O)[C@H](CC(C)C)NC(=O)[C@H](CCCCN)NC(=O)[C@H](CC(C)C)NC(=O)CNC(=O)[C@H](Cc2ccccc2)NC(=O)[C@@H](CO)NC(=O)[C@@H](NC(=O)[C@@H](N)CCSC)CSSC[C@@H](C(N)=O)NC(=O)[C@H](CO)NC1=O [compound 39]
< 5 | CCCCCC(=O)N[C@H]1CSSC[C@@H](C(N)=O)NC(=O)[C@H](CO)NC(=O)[C@H]([C@@H](C)CC)NC(=O)[C@H](CCCNC(=N)N)NC(=O)[C@H](CC(=O)O)NC(=O)[C@H](CC(C)C)NC(=O)[C@H](CCCCN)NC(=O)[C@H](C)NC(=O)CNC(=O)[C@H](Cc2ccccc2)NC(=O)[C@@H](C)NC1=O [compound 101] (Hexanoyl-C[dA]FGAKLDRISC-NH2; disulfide 1-12)

SMILES | EC50 [µM]
CC[C@H](C)[C@@H]1NC(=O)[C@H](CCCNC(=N)N)NC(=O)[C@H](CC(=O)O)NC(=O)[C@H](CC(C)C)NC(=O)[C@H](CCCCN)NC(=O)[C@H](CC(C)C)NC(=O)CNC(=O)[C@H](Cc2ccccc2)NC(=O)[C@H](Cc2c[nH]cn2)NC(=O)[C@@H](NC(=O)[C@@H](N)CCSC)CSSC[C@@H](C(=O)N[C@@H](Cc2c[nH]cn2)C(=O)N[C@@H](CCCNC(=N)N)C(N)=O)NC(=O)[C@H](CO)NC1=O [compound 25] (H-MCHFGLKLDRISCHR-NH2; disulfide 2-13) | < 15
CCCCCC(=O)N[C@H]1CSSC[C@@H](C(N)=O)NC(=O)[C@H](CO)NC(=O)C2(CCOCC2)NC(=O)[C@H](CCCNC(=N)N)NC(=O)[C@H](CC(=O)O)NC(=O)[C@H](CC(C)C)NC(=O)[C@H](CCCCN)NC(=O)[C@H](CC(C)C)NC(=O)CNC(=O)[C@H](Cc2ccccc2)NC(=O)[C@@H](C)NC1=O [compound 116] | < 15
CCCCCC(=O)N[C@H]1CSSC[C@@H](C(N)=O)NC(=O)[C@H](CO)NC(=O)[C@H]([C@@H](C)CC)NC(=O)[C@H](CCCNC(=N)N)NC(=O)[C@H](CC(=O)O)NC(=O)[C@H](CC(C)C)NC(=O)[C@H](CCCCN)NC(=O)[C@H](CC(C)C)NC(=O)CNC(=O)[C@H](Cc2cccc(C(F)(F)F)c2)NC(=O)[C@@H](C)NC1=O [compound 105] | < 15
CC[C@H](C)[C@@H]1NC(=O)[C@H](CCCNC(=N)N)NC(=O)[C@H](CC(=O)O)NC(=O)[C@H](CC(C)C)NC(=O)[C@H](CCCCN)NC(=O)[C@H](CC(C)C)NC(=O)CNC(=O)[C@H](Cc2ccccc2)NC(=O)[C@H](Cc2c[nH]cn2)NC(=O)[C@@H](NC(=O)[C@@H](N)CCSC)CSSC[C@@H](C(=O)O)NC(=O)[C@H](CO)NC1=O [compound 15] | < 15
